Earlier results, collected in patent US20060136139A1, “Rapid computational identification of targets” (priority 2004, published 2006).

What was measured:
[1] = tested on: PP2B; conditions: experimental value beside the computed energy
[2] = tested on: PP2A; conditions: experimental value beside the computed energy
[3] = tested on: PP1; conditions: experimental value beside the computed energy
[4] = tested on: PP2C; conditions: experimental value beside the computed energy
[5] = at concentrations used in experimental inhibition studies

SMILES: C=C1[C@@H](O)[C@@H]2O[C@]3(CC[C@H](/C=C/[C@@H](C)[C@@H]4CC(C)=C[C@@]5(O[C@H](C[C@@](C)(O)C(=O)O)CC[C@H]5O)O4)O3)CC[C@H]2O[C@@H]1[C@@H](O)C[C@H](C)[C@H]1O[C@@]2(CCCCO2)CC[C@H]1C [okadaic acid]
- IC50 [1]: 5000 nM
- IC50 [2]: 0.51 nM
- IC50 [3]: 42 nM
- IC50 [4]: > 10000 nM

SMILES: O=c1c(O)c(-c2ccc(O)c(O)c2)oc2cc(O)cc(O)c12 [quercetin]
- aggregation of kinase inhibitor [5]: exhibit this behavior
